# Test results published in ChEMBL document CHEMBL1134925, “Exiguamide, a new spirocyclic sesquiterpene from the marine sponge Geodia exigua that inhibits cell fate specification during sea urchin embryogenesis” (Bioorg Med Chem Lett, 2002).
# Active and inactive are the calls of the source. No cut-off for these calls is given here.
# Tested on: Hemicentrotus pulcherrimus
# Assay: Ability of the embryo (sea urchin, Hemicentrotus pulcherrimus) to form spicule deficient plutei when treated with the compound at a concentration of 0.4-12 uM; not active
# Format: functional, organism-based
structure (smiles),measurement,value
CC1=C[C@@]2(CC1)[C@H](NC=O)[C@H](C(C)C)CC[C@@H]2C,Activity,inactive
